Data on 14 molecules can be found in ChEMBL document CHEMBL1154369, “Betulin-derived compounds as inhibitors of alphavirus replication” (J Nat Prod, 2009).

In series [1] the test system is Semliki Forest virus. Nature of the series: Antiviral activity against SFV infected in BHK cells assessed as surviving virus fraction at 50 uM after 14 hrs by luciferase reporter gene assay. It counts as functional. Also noted: scale not given here. On the technique in general: A reporter such as luciferase makes a cellular process visible.
A short description of series [2]: Cytotoxicity against human HuH7 cells assessed as cell viability at 50 uM after 24 hrs.

The term viability denotes a read-out of living cells in per cent, often relative to untreated cells.

`C=C(C)[C@@H]1CC[C@]2(COS(C)(=O)=O)CC[C@]3(C)[C@H](CC[C@@H]4[C@@]5(C)CC[C@H](OC(C)=O)C(C)(C)[C@@H]5CC[C@]43C)[C@@H]12`: the Activity in series [1] is 46%. Besides, the viability at 24 h, 50 µM in series [2] came to 99%.

As to `CCn1c(=O)n2n(c1=O)[C@]1(C(C)C)CC[C@]3(COC(C)=O)CC[C@]4(C)C(=C31)[C@@H]2C[C@@H]1[C@@]2(C)CC[C@H](OC(C)=O)C(C)(C)[C@@H]2CC[C@]14C`, the Activity in series [1] was determined as 24%. For the same molecule, the viability at 24 h, 50 µM in series [2] was determined as 40%.

For the molecule `C=C(C)[C@@H]1CC[C@]2(C#N)CC[C@]3(C)[C@H](CC[C@@H]4[C@@]5(C)CC[C@H](OC(C)=O)C(C)(C)[C@@H]5CC[C@]43C)[C@@H]12`, in series [1], the Activity worked out at 60%. Moreover, the viability at 24 h, 50 µM in series [2] amounted to 69%.

`C=C(C)[C@@H]1CC[C@]2(COC(=O)CBr)CC[C@]3(C)[C@H](CC[C@@H]4[C@@]5(C)CC[C@H](O)C(C)(C)[C@@H]5CC[C@]43C)[C@@H]12`: in series [1], the Activity turned out to be 125%. The viability at 24 h, 50 µM in series [2] came to 11%.

Regarding `C=C(C)[C@@H]1CC[C@]2(COC(=O)c3ccccc3NC(C)=O)CC[C@]3(C)[C@H](CC[C@@H]4[C@@]5(C)CC[C@H](O)C(C)(C)[C@@H]5CC[C@]43C)[C@@H]12`, the Activity in series [1] came to 82%. The viability at 24 h, 50 µM in series [2] was 94%.

Regarding `CC(=O)OC[C@]12CC[C@]3(C(C)C)C1=C1[C@H](C[C@@H]4[C@@]5(C)CC[C@H](OC(C)=O)C(C)(C)[C@@H]5CC[C@@]4(C)[C@]1(C)CC2)n1c(=O)n(-c2ccc(F)cc2)c(=O)n13`, the Activity in series [1] amounted to 64%. Also, the viability at 24 h, 50 µM in series [2] worked out at 95%.

For `CC(=O)OC[C@]12CC[C@]3(C(C)C)C1=C1[C@H](C[C@@H]4[C@@]5(C)CC[C@H](OC(C)=O)C(C)(C)[C@@H]5CC[C@@]4(C)[C@]1(C)CC2)n1c(=O)n(-c2ccc4c(c2)CCC4)c(=O)n13`, in series [1], the Activity worked out at 81%. Also, the viability at 24 h, 50 µM in series [2] worked out at 93%.

Turning to `C=C(C)[C@@H]1CC[C@]2(CO)CC[C@]3(C)[C@H](CC[C@@H]4[C@@]5(C)CC=CC(C)(C)[C@@H]5CC[C@]43C)[C@@H]12`, in series [1], the Activity is recorded as 121%. Further, the viability at 24 h, 50 µM in series [2] came to 85%.

Turning to `C=C(C)[C@@H]1CC[C@]2(COC(=O)c3cccnc3)CC[C@]3(C)[C@H](CC[C@@H]4[C@@]5(C)CC[C@H](O)C(C)(C)[C@@H]5CC[C@]43C)[C@@H]12`, the Activity in series [1] is listed as 43%. Also, the viability at 24 h, 50 µM in series [2] was found to be 94%.

`C=C(C)[C@@H]1CC[C@]2(/C=N/O)CC[C@]3(C)[C@H](CC[C@@H]4[C@@]5(C)CC[C@H](O)C(C)(C)[C@@H]5CC[C@]43C)[C@@H]12`: the Activity in series [1] amounted to 55%. The viability at 24 h, 50 µM in series [2] came out at 82%.

For `CC(C)[C@@]12CC[C@]3(COC(=O)C4CCCCC4)CC[C@]4(C)C(=C31)[C@H](C[C@@H]1[C@@]3(C)CC[C@H](OC(=O)C5CCCCC5)C(C)(C)[C@@H]3CC[C@]14C)n1c(=O)n(C)c(=O)n12`, the Activity in series [1] is given as 44%. In addition, in series [2], the viability at 24 h, 50 µM amounted to 97%.

Turning to `C=C(C)[C@@H]1CC[C@]2(COC(=O)COc3cc(C(C)C)ccc3C)CC[C@]3(C)[C@H](CC[C@@H]4[C@@]5(C)CC[C@H](O)C(C)(C)[C@@H]5CC[C@]43C)[C@@H]12`, in series [1], the Activity is reported as 80%. Also, the viability at 24 h, 50 µM in series [2] turned out to be 103%.

On to `C=C(C)[C@@H]1CC[C@]2(C(=O)OC)CC[C@]3(C)[C@H](CC[C@@H]4[C@@]5(C)CCC(=O)C(C)(C)[C@@H]5CC[C@]43C)[C@@H]12` [METHYL BETULONATE], for which the Activity in series [1] stood at 71%. The viability at 24 h, 50 µM in series [2] was determined as 83%.

Take `C=C(C)[C@@H]1CC[C@]2(/C=N/O)CC[C@]3(C)[C@H](CC[C@@H]4[C@@]5(C)CC/C(=N\O)C(C)(C)[C@@H]5CC[C@]43C)[C@@H]12` [BETULIN-3,28-DIOXIME]: the Activity in series [1] came to 121%. Besides, in series [2], the viability at 24 h, 50 µM came out at 80%.
